Data as given in US8101375B2, “Compositions and methods for detecting phosphomonoester” (Illumina, Inc., priority 2005, dated 2012).

Key:
p60c-src kinase = p60c-src kinase (Homo sapiens, UniProt P12931); test: Multiplex kinase profiling assay, 194-target pool, chemical labeling, p60c-src kinase; format: biochemical; details: chemical labeling with low pH EDC pre-treatment
Protocol: (§1) A kinase profiling assay was carried out in four major steps, including the phosphorylation of protein target in a kinase enzyme reaction, labeling of phosphorylated target, hybridization of labeled target to the array, and detection of hybridized target on the array.
(§2) In the first step, phosphorylation was carried out in duplex format such that a mixture of two DNA-protein conjugate targets, one having an amino acid recognition sequence for p60c-src kinase and the other for PKA kinase, were co-incubated with p60c-src kinase and PKA kinase. The reaction was performed in 15 ul of 50 mM HEPES, containing 0.1 mM EDTA, 0.015% Brig 35, 0.15 mM ATP, 30 mM MgCl2, 0.1% 2-mercaptoethanol, pH 7.5.
(§3) Upon completion of the enzymatic reaction; the second step was carried out to detect phosphorylation using chemical labeling or antibody-based labeling. In the chemical labeling method, a solution of 5-(aminoacetamido)fluorescein (NH2-FAM, Molecular Probes, Oreg.) and EDC in MES buffer, pH 6.0, was added to the reaction mixture to a final concentration of 150 mM EDC and 200 μM of NH2-FAM. Where pre-treatment was used to block (i.e. protect) […] moieties, the pH of the reaction mixture was first adjusted to pH 4.5 and then pre-treated with 100 mM of EDC for 1.5 hours at 25° C. After the pre-treatment, the NH2-FAM and EDC were added and the reaction was allowed to proceed overnight. […]

PKA kinase = PKA kinase (Homo sapiens, UniProt P17612); test: Multiplex kinase profiling assay, 194-target pool, chemical labeling, PKA kinase; format: biochemical; details: selectivity check
Protocol: as §1, §2, §3

Chain of p60c-src kinase (P12931 whole entry): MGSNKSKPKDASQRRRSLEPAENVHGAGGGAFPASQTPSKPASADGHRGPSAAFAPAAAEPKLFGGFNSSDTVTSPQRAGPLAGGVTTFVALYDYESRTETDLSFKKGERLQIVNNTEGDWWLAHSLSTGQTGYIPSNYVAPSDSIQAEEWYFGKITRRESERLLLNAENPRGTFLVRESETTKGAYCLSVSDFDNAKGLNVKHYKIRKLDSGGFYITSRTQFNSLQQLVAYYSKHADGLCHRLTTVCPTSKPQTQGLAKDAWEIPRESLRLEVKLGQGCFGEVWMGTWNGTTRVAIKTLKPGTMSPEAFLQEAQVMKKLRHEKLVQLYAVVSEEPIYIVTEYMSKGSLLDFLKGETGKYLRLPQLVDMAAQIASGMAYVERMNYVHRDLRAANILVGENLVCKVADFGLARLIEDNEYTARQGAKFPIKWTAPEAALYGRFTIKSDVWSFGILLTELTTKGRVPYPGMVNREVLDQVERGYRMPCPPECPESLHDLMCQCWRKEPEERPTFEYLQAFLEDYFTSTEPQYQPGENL

## COc1cc2ncnc(Nc3ccc(Oc4ccccc4)cc3)c2cc1OC [Src Kinase Inhibitor I]
p60c-src kinase
  inhibition of p60c-src kinase: 85%
PKA kinase
  effect on PKA kinase: no detectable effect
